Experiments:
[1] = target: T1, human CETP (Homo sapiens, UniProt P11597); test: Assay of cholesteryl ester transfer protein inhibitory activity, 50% human plasma-containing measurement system; type: biochemical; conditions: BODIPY-CE-ME donor, VLDL-LDL acceptor, reaction at 37° C. for 60 min.
T1 sequence (P11597 18-493): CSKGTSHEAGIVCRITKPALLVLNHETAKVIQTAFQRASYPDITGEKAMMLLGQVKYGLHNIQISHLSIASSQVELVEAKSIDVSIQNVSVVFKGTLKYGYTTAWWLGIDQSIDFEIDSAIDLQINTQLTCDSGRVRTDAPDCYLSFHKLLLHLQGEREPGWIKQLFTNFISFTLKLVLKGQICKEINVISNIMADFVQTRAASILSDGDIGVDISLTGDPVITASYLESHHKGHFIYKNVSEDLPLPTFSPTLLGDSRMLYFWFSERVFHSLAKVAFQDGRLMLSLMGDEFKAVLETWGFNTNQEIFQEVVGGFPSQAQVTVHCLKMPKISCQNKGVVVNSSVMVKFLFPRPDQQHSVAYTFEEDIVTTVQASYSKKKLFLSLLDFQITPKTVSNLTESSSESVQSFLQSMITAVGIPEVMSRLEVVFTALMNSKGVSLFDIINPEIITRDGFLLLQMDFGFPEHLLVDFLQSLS
Protocol: (§1) Assay of Cholesteryl Ester Transfer Protein Inhibitory Activity
(§2) Fresh rabbit serum was adjusted with KBr to the density of (1.063 g/ml), and the fractions (VLDL-LDL, density<1.063 g/ml) floated by ultra-centrifugation operation (SW41—Ti, 40,000 rpm, 18 hrs., 4° C., Beckman model L8-55) were collected, subjected to dialysis against 0.15 M NaCl-10 mM Tris-HCl, pH 7.4 (TBS), sterilized by filtration through a filter and preserved at 4° C.
(§3) A solution of BODIPY-CE (0.6 mg) in chloroform was added to egg PC (phosphatidylcholine) ([…]) and triolein (2 mg), and after dissolution, the lipid was air dried under a nitrogen gas reflux and the solvent was removed under high vacuum. To this lipid was added an apo HDL solution (7.5 ml) obtained by defatting human HDL (1.063<d<1.21) with chloroform-methanol (2:1, v/v), dissolving in 6 M urea-containing TBS and dialyzing against TBS, and the mixture was subjected to sonication (BRANSON SONIFIRE CELL DISRUPTOR 200, dial 6, 5 min×4) to give BOBIPY-CE-ME. After centrifugation (CENTRIPREP 10), it was sterilized by filtration through a filter and preserved at 4° C.
(§4) The test compound (20% DMSO solution, 5 μl), human plasma (75 μl), acceptor lipoprotein (VLDL-LDL, 20 μl) and partially purified human CETP (25 μl) were mixed and incubated at 37° C. for 30 min. BODIPY-CE-ME (25 μl) was added (total 150 μl) and a transfer reaction was started. After reaction at 37° C. for 60 min., fluorescence intensity was measured at Ex. 490 nm/Em. 530 nm. The CETP inhibitory activity (% inhibition) was calculated by the following formula. [formula]
(§5) The IC50 value was determined as a concentration showing 50% inhibition by plotting the logarithm of the concentration of test compound and % inhibition.

[2] = target: T1, human CETP; test: Assay of cholesteryl ester transfer protein inhibitory activity, standard measurement system; type: biochemical; conditions: BODIPY-CE-ME donor, VLDL-LDL acceptor, reaction at 37° C. for 30 min.
Protocol: as §1, §2, §3
as §4, with “TS” for “human plasma”, “30” for “60”, “[formula] 4) 50% Human Plasma-Containing Measurement System” for “[formula]”
as §5

SMILES | IC50 [1] | melting point | IC50 [2]
O=C(N[C@H](Cc1cccc(OC(F)(F)C(F)F)c1)[C@@H](O)c1ccc(F)cc1)c1ccc(F)c2ccccc12 (racemic) [Example 125, 4-fluoro-N-[(1RS,2SR)-2-(4-fluorophenyl)-2-hydroxy-1-[3-(1,1,2,2-tetrafluoroethoxy)benzyl]ethyl]naphthalene-1-carboxamide] | 2 µM | 186 to 187 °C | 0.051 µM
O=C(N[C@H](Cc1cccc(OC(F)(F)C(F)F)c1)[C@@H](O)c1ccc(F)cc1)c1cccc2c1C=CCCCC2 (racemic) [Example 126, N-[(1RS,2SR)-2-(4-fluorophenyl)-2-hydroxy-1-[3-(1,1,2,2-tetrafluoroethoxy)benzyl]ethyl]-5,6,7,8-tetrahydrobenzo[a]cyclooctene-1-carboxamide] | 1 µM | 189 to 190 °C | 0.07 µM
CC(C)c1ccc(C[C@@H](NC(=O)c2cccc3c2C=CCCC3)[C@@H](O)c2ccc(F)cc2)cc1 (racemic) [Example 155, N-[(1RS,2SR)-2-(4-fluorophenyl)-2-hydroxy-1-(4-isopropylbenzyl)ethyl]-6,7-dihydro-5H-benzo[a]cycloheptene-1-carboxamide] | 2.1 µM | 168 to 169 °C | 0.095 µM
O=C(N[C@H](Cc1cccc(OC(F)(F)C(F)F)c1)[C@@H](O)c1ccnc(F)c1)c1cccc2c1C=CCCC2 (racemic) [Example 220, N-((1RS,2SR)-2-(2-fluoropyridin-4-yl)-2-hydroxy-1-((3-(1,1,2,2-tetrafluoroethoxy)phenyl)methyl)ethyl)-6,7-dihydro-5H-benzo[a]cycloheptene-1-carboxamide] | 1.4 µM | 159 to 160 °C | 0.03 µM
O=C(N[C@H](Cc1ccc2c(c1)OC(F)(F)C(F)(F)O2)[C@@H](O)c1ccc(F)cc1)c1ccc(F)c2ccccc12 (racemic) [Example 271, 4-fluoro-N-{(1RS,2SR)-2-(4-fluorophenyl)-2-hydroxy-1-[(2,2,3,3-tetrafluoro-2,3-dihydro-1,4-benzodioxin-6-yl)methyl]ethyl}-1-naphthamide] | 1.4 µM | 193 to 194 °C | 0.17 µM
CC(C)(C)c1ccc(C[C@@H](NC(=O)c2cccc3c(Cl)cccc23)[C@@H](O)c2cccc(Cl)c2)cc1 (racemic) [Example 274, N-[(1RS,2SR)-1-(4-tert-butylbenzyl)-2-(3-chlorophenyl)-2-hydroxyethyl]-5-chloro-1-naphthamide] | 3.1 µM | 112 to 113 °C | 0.052 µM

Stronger by IC50 [1], values ahead:

IC50 [1] | melting point | IC50 [2] | SMILES
0.7 µM | 182 to 183 °C | 0.04 µM | O=C(N[C@H](Cc1cccc(OC(F)(F)C(F)F)c1)[C@@H](O)c1ccc(Cl)cc1)c1cccc2c1C=CCCC2 (racemic) [Example 216, N-[(1RS,2SR)-2-(4-chlorophenyl)-2-hydroxy-1-[3-(1,1,2,2-tetrafluoroethoxy)benzyl]ethyl]-6,7-dihydro-5H-benzo[a]cycloheptene-1-carboxamide]
0.66 µM | 116 to 117 °C | 0.056 µM | CCc1cc(Oc2ccc([C@H](O)[C@@H](Cc3cccc(OC(F)(F)C(F)F)c3)NC(=O)c3cccc4c3C=CCCC4)cc2)ccc1Cl (racemic) [Example 218, N-((1RS,2SR)-2-(4-((4-chloro-3-ethylphenyl)oxy)phenyl)-2-hydroxy-1-((3-((1,1,2,2-tetrafluoroethyl)oxy)phenyl)methyl)ethyl)-6,7-dihydro-5H-benzo[a]cycloheptene-1-carboxamide]

From US6982348B2, “Aminoethanol derivatives” (Takeda Pharmaceutical Company Limited, priority 2001, dated 2006)
